Assay results from patent US5336783A, “Calpain inhibitor cystamidin A and its production” (The Kitasato Institute, priority 1992, dated 1994).
Values after ≈ are worked out from the molar mass of the structure shown.

Key:
[1] = acute toxicity LD50 (ip) in mice; details: mouse, in vivo
B-16 melanoma cells = experiment: activity against B-16 melanoma cells in vitro; type: cell-based; details: Mus musculus, B16
solubility in solvent = type: physicochemical; details: water, methanol, acetone, chloroform and benzene
[2] = system: various kinds of bacteria, yeast and fungi; experiment: antimicrobial activity (paper disk method); type: cell-based; details: 100 μg/disk
calpain = calpain inhibition using casein as substrate (method by Saito et al.); type: biochemical

With NC(=O)CCc1cc[nH]c1 [cystamidin A] the LD50 [1] was > 200 mg/kg, the IC50 (B-16 melanoma cells) was > 25 mg/L and the Solubility in solvent (solubility in solvent) was “soluble in water, methanol, acetone, chloroform and benzene”. For the same compound, the antimicrobial activity [2] was “no antimicrobial activity” and the “IC50 (50% inhibition) against calpain” value (calpain) was 0.20 mg/L (≈ 1.45 µM).
